Laboratory results: ChEMBL document CHEMBL1124713, “Synthesis of N-[N-(4-deoxy-4-amino-10-methylpteroyl)-4-fluoroglutamyl]- gamma-glutamate, an unusual substrate for folylpoly-gamma-glutamate synthetase and gamma-glutamyl hydrolase” (J Med Chem, 1990)

Tests used:
Type in all cases: ADME
[1] = Kinetic constant relative(Vmax) was determined in FPGS-catalyzed reaction
[2] = Ratio of relative Vmax to Km was determined
[3] = test system: FPGS (folylpolyglutamate synthetase); assay: Kinetic constant(Km) was determined in FPGS-catalyzed reaction

Row | Structure (SMILES) | Relative Vmax [1] | Ratio [2] | Km [3] [µM]
1 | CN(Cc1cnc2nc(N)nc(N)c2n1)c1ccc(C(=O)NC(CC(F)C(=O)NC(CCC(=O)O)C(=O)O)C(=O)O)cc1 (centres undefined) | 0.23 | 0.0023 | 100
2 | CN(Cc1cnc2nc(N)nc(N)c2n1)c1ccc(C(=O)NC(CCC(=O)NC(CCC(=O)O)C(=O)O)C(=O)O)cc1 (centres undefined) | 0.45 | 0.012 | 38
3 | CN(Cc1cnc2nc(N)nc(N)c2n1)c1ccc(C(=O)N[C@@H](CCC(=O)O)C(=O)O)cc1 [METHOTREXATE] | 1 | 0.024 | 42
